Assay results from article PMC3674958 (Investigational new drugs, 2012).

How the values were obtained:
[1] = Plasma pharmacokinetics of irinotecan and its metabolites; settings: human, iv
clinical = settings: human, in vivo, 400 mg
plasma proteins = test: Sorafenib fraction unbound in patient plasma by equilibrium dialysis; format: in vitro ADME; settings: human

A Tmax ([1]; 100 mg/m2) of 1.4 h and a Tmax ([1]; 120 mg/m2) of 1.4 h were found for `CCc1c2c(nc3ccc(OC(=O)N4CCC(N5CCCCC5)CC4)cc13)-c1cc3c(c(=O)n1C2)COC(=O)[C@]3(O)CC` [Irinotecan] in this work.

A Cmax (clinical; Cmax) of 4710 ± 3520 ng/mL, a Tmax (clinical; Tmax) of 4.1 h and a fraction unbound (plasma proteins) of 0.0027 to 0.0067 were found for `CNC(=O)c1cc(Oc2ccc(NC(=O)Nc3ccc(Cl)c(C(F)(F)F)c3)cc2)ccn1` [Sorafenib, reference compound] in this work.
